Results published in patent US20220118117A1, “MODULATORS OF METABOTROPIC GLUTAMATE RECEPTOR 4” (The General Hospital Corporation, priority 2019, published 2022).
“And” between values parts separate entries of the source, which are not always exact repeats. Identical values can stand only once.

Columns and labels:
[1] = test system: other mGlu receptors (mGluR1, mGluR5, mGluR2, mGluR3, mGluR6, mGluR8); assay: mGluR subtype selectivity (Ca2+ mobilization and cAMP assays); format: cell-based; settings: Gq coupled: Ca2+ mobilization; Gi/o coupled: cAMP assay
Method: Ca^2+ mobilization assay. The Gq coupled receptors (mGluR1 and mGluR5) were tested using Ca^2+ mobilization assay. mGluR1 stable cell lines were plated into poly-L-lysine (PLL) coated 384-well black clear bottom cell culture plates with complete Basal Medium Eagle (BME) buffer, which was composed of 10% dialyzed FBS, penicillin G (100 units/mL), streptomycin (100 μg/mL) with Tetracycline (1 μg/mL) at density of 20,000 cells in 40 μl per well for overnight. […] Once loaded in FLIPR (Molecular Devices), basal fluorescence was measured for 10 s, then 10 μL of test or reference compounds were added, followed by continued fluorescence measurement for an additional 120 s. […]
cAMP assay. […] Luminescence was counted in a Trilux luminescence counter. Data were analyzed with Prizm 5.0 (GraphPad software).
The selectivity of 15 was also analyzed among the various mGluR subtypes, in which the Gq coupled receptors (mGluR1 and mGluR5) were tested using Ca^2+ mobilization assay and the Gi/o coupled receptors (mGluR2, mGluR3, mGluR4, mGluR6 and mGluR8) using the cAMP assay.

microsomal stability = format: in vitro ADME, Sprague-Dawley rat; settings: rat liver microsomes, NADPH
Method: First, Sprague-Dawley rat liver microsomes (0.5 mg/mL, Sigma-Aldrich, No. M9066) was incubated with PBS (50 mM, pH=7.4) in a reaction tube at 37° C. for 3 min. To the reaction tube were added the test compound (2 μM) and then cofactor, NADPH (1 mM), to start the reaction. The mixture was shaken in a water bath at 37° C. At different time points (0, 5, 10, 15, 30 min), aliquots (50 μL) were removed and added to 100 μl of cold acetonitrile with internal standard (25 μM) to quench the reaction. The precipitated material was by centrifugation (10,000×g, 10 min, 4° C.), and the supernatant was analyzed by RP-HPLC (Column: Phenomenex Luna© 5 μm, Cis, 100 Å, 250×4.6 mm). The RP-HPLC was carried out by using a 15-min gradient method: eluent A: 0.1% formic acid/H2O; eluent B: 0.1% formic acid/CH3CN; gradient: […]; 5% B to 95% B from 1 to 9 min, 95% B from 9 to 12 min, 95% to 5% B from 12 to 13 min, 5% B from 13 to 15 min; flow rate at 0.7 mL/min.
The in peak area ratio (test compound peak area at a time point/peak area at 0 min time point) was plotted against time and the gradient of the line was determined. Subsequently, the half-life (t1/2) was calculated as 0.693/k, where the elimination rate constant k equals to −gradient. V (μL/mg) was obtained as a ratio of volume of incubation […]/protein in the incubation (mg). Finally, the intrinsic clearance (CLint) (μL/min/mg protein) was calculated as V*0.693/t1/2.

mGluR4 = mGluR4 (Homo sapiens, UniProt Q14833); assay: competitive binding (radioligand replacement) assay with [3H]4 in mGluR4 transfected CHO cells; design: expressed in transfected cells; host or cells: CHO cells; settings: 2 nM [3H]4, read-out: IC50 (nM), affinity to mGluR4
Method: In Vitro mGluR4 Binding Assay. CHO cells expressing mGluR4 were used for all binding assay protocols. For competitive binding, 2 nM of [^3H]4 was used together with increased concentrations of test compounds ranging from 0.01 nM to 10 μM. Each test tube contained 50 000 freshly harvested CHO cells expressing mGluR4 cultured in HAMs cell culture medium with 100 nM of glutamate, penicillin-streptomycin (100 units), and 1 mM G418. [3H]4 (2 nM) was added to the cell extract with and without test compounds on ice and then incubated for 30 min at room temperature. Samples were centrifuged at 1200 rpm for 10 min at 4° C. and washed three times with a cold cell culture medium as a washing buffer. Samples were lysed by adding 100 μL of 0.5% NaOH and heated using a heating block (56° C., 30 min). Samples were cooled with an ice bath and transferred to Solvent-Saver scintillation vials (VWR International LLC.). To obtain binding parameters, the scintillation liquid (PerkinElmer, Optima Gold) was added prior to counting with a scintillation counter (Packard TriCarb Model, 1 min/vial). Nonspecific binding was determined using 10 μM of nonradioactive test compound, and specific binding was determined by extracting the nonspecific binding from total binding. All measurements were done in triplicate and analyzed with GraphPad Prism software (GraphPad Software Inc.).

Sequence of mGluR4 (Q14833 33-912): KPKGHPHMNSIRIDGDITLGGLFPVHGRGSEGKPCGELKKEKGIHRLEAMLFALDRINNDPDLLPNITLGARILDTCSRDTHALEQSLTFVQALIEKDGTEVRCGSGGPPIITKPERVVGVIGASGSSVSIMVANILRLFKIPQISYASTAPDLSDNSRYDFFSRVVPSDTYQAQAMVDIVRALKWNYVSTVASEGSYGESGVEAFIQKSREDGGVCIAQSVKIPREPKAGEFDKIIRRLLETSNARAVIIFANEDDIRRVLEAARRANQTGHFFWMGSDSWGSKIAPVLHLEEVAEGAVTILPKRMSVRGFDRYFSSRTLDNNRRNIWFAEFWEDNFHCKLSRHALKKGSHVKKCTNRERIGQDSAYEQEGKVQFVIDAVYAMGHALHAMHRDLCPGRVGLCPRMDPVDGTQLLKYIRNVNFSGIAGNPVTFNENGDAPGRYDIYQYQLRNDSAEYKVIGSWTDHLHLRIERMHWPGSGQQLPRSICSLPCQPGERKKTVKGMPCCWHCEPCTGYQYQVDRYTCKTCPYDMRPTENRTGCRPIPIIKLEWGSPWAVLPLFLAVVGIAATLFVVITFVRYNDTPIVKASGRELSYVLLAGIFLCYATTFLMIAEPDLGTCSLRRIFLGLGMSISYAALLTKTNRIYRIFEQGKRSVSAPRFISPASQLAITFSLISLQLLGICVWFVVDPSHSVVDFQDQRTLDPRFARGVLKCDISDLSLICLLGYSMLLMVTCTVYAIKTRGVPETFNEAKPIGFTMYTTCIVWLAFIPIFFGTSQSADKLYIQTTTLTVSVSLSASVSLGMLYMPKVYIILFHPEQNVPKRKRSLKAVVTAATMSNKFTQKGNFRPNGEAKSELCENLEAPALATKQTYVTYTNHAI

[2H]C([2H])(F)Sc1cc(NC(=O)c2ccccn2)ccc1Cl [Compound 15, N-(4-Chloro-3-((fluoromethyl-d2)thio)phenyl)picolinamide]
selectivity among mGluR subtypes [1]: has selectivity against other mGlu receptors
The microsome stability t1/2 (microsomal stability): 57.258 min and 57.3 min
IC50 (mGluR4): 3.4 nM
